Assay results from US10722484B2, “Methods of cancer treatment” (K-Gen, Inc., priority 2016, dated 2020).
Read-outs that look alike come from different tables or passages of the source.

Tests used:
Assay in all cases: Proliferation assay (CellTiter Glo)
RPMI8226 = assay type: cell-based; details: RPM18226; 96 hours
H838 = assay type: cell-based; details: H838 (RAS WT); 96 hours
H1915 = assay type: cell-based; details: H1915 (RAS WT); 96 hours
BxPC-3 = assay type: cell-based; details: BxPC-3 (RAS WT); 96 hours
Colo205 = assay type: cell-based; details: Colo205 (RAS WT); 96 hours
SW900 = assay type: cell-based; details: SW900 (K-RAS: G12V); 96 hours
HT29 = assay type: cell-based; details: HT29 (RAS WT); 96 hours
Pan2.03 = assay type: cell-based; details: 96 hours; for Top Inhibition %: % of top inhibition
Method: (§1) The dose range for most compounds was 4.6 nM-30 μM. The dose ranges for some compounds were adjusted downward to 0.46 nM-3 μM or 0.08 nM-0.5 μM or 0.03 nM-0.2 μM. […] The results are shown in Tables 3-6 for pancreatic cancer, lung cancer, colon/gastric cancer, and leukemia.

SW620 = assay type: cell-based; details: 96 hours; for EC50: SW620 (K-RAS: G12V), absolute EC50, read-out: Ab EC50; for Top Inhibition %: SW620, % of top inhibition
Method: as §1

HCT116 = assay type: cell-based; details: 96 hours; for Top Inhibition %: % of top inhibition
Method: as §1

CCRF-CEM = assay type: cell-based; details: 96 hours; for Top Inhibition %: % of top inhibition
Method: as §1

Pan2.13 = assay type: cell-based; details: 96 hours; for Top Inhibition %: % of top inhibition
Method: as §1

KP-4 = assay type: cell-based; details: 96 hours; for Top Inhibition %: % of top inhibition
Method: as §1

A549 = assay type: cell-based; details: 96 hours; for Top Inhibition %: % of top inhibition
Method: as §1

H441 = assay type: cell-based; details: 96 hours; for Top Inhibition %: % of top inhibition
Method: as §1

AGS = assay type: cell-based; details: 96 hours; for Top Inhibition %: % of top inhibition
Method: as §1

H727 = assay type: cell-based; details: 96 hours; for Top Inhibition %: % of top inhibition
Method: as §1

Capan-1 = assay type: cell-based; details: 96 hours; for Top Inhibition %: % of top inhibition
Method: as §1

H358 = assay type: cell-based; details: HE58, 96 hours; for Top Inhibition %: % of top inhibition
Method: as §1

AsPC-1 = assay type: cell-based; details: 96 hours; for Top Inhibition %: % of top inhibition
Method: as §1

LS180 = assay type: cell-based; details: 96 hours; for EC50: LS180 (K-RAS: G12D), absolute EC50, read-out: Ab EC50; for Top Inhibition %: LS180, % of top inhibition
Method: as §1

MiaPaCa-2 = assay type: cell-based; details: 96 hours; for Top Inhibition %: % of top inhibition
THP1 = assay type: cell-based, human; details: 96 hours; for Top Inhibition %: % of top inhibition
Method: as §1

HL60 = assay type: cell-based, human; details: 96 hours; for Top Inhibition %: % of top inhibition
Method: as §1

[1] = Pan2.03 (K-RAS: G12D), absolute EC50, read-out: Ab EC50
[2] = Pan2.03, relative EC50, read-out: Re EC50
[3] = Pan2.13 (K-RAS: Q61H), absolute EC50, read-out: Ab EC50
[4] = Pan2.13, relative EC50, read-out: Re EC50

CCCCCCCCCCCCCC(=O)O[C@@H]1[C@@H](C)[C@@]2(O)[C@@H](C=C(CO)C[C@]3(O)C(=O)C(C)=C[C@@H]23)[C@@H]2C(C)(C)[C@]12OC(C)=O [Compound K103, 12-O-Tetradecanoylphorbol-13-acetate]
Top Inhibition % (RPMI8226): 32.75%
Top Inhibition % (H838): 15.5%
Top Inhibition % (H1915): 27.9%
Top Inhibition % (BxPC-3): 44.46%
Top Inhibition % (Colo205): 86.8%
Top Inhibition % (SW900): 18.7%
Top Inhibition % (HT29): 20.9%
EC50 (Pan2.03; [1]): > 500 nM
Top Inhibition % (Pan2.03; Pan2.03): 32.2%
EC50 (Pan2.03; [2]): 0.9 nM
EC50 (SW620; Homo sapiens, SW-620): > 10000 nM
Top Inhibition % (SW620): 1.2%
Top Inhibition % (HCT116; HCT116): 21.4%
EC50 (HCT116; Homo sapiens, HCT-116, HCT116 (K-RAS: G13D), absolute EC50, read-out: Ab EC50): > 500 nM
EC50 (HCT116; Homo sapiens, HCT-116, HCT116, relative EC50, read-out: Re EC50): 1.2 nM
Top Inhibition % (CCRF-CEM; CCRF-CEM): 37.7%
EC50 (CCRF-CEM; Homo sapiens, CCRF-CEM (K-RAS: G12D), absolute EC50, read-out: Ab EC50): > 500 nM
EC50 (CCRF-CEM; Homo sapiens, CCRF-CEM, relative EC50, read-out: Re EC50): 0.24 nM
EC50 (Pan2.13; [3]): > 500 nM
Top Inhibition % (Pan2.13; Pan2.13): 41.9%
EC50 (Pan2.13; [4]): 0.66 nM
EC50 (KP-4; Homo sapiens, KP-4 (K-RAS: G12C), absolute EC50, read-out: Ab EC50): < 4.6 nM
Top Inhibition % (KP-4; KP-4): 70.3%
Top Inhibition % (A549; A549): 80.6%
EC50 (A549; Homo sapiens, A549 (K-RAS: G12S), absolute EC50, read-out: Ab EC50): < 4.6 nM
Top Inhibition % (H441; H441): 46.7%
EC50 (H441; Homo sapiens, NCI-H441, H441 (K-RAS: G12V), absolute EC50, read-out: Ab EC50): > 500 nM
EC50 (H441; Homo sapiens, NCI-H441, H441, relative EC50, read-out: Re EC50): 0.75 nM
Top Inhibition % (AGS; AGS): 47.2%
EC50 (AGS; Homo sapiens, AGS (gastric, K-RAS: G12D), absolute EC50, read-out: Ab EC50): > 500 nM
EC50 (AGS; Homo sapiens, AGS, relative EC50, read-out: Re EC50): 1.1 nM
Top Inhibition % (H727; H727): 57.4%
EC50 (H727; Homo sapiens, NCI-H727, H727 (K-RAS: G12V), absolute EC50, read-out: Ab EC50): 2.2 nM
EC50 (H727; Homo sapiens, NCI-H727, H727, relative EC50, read-out: Re EC50): 0.37 nM
Top Inhibition % (Capan-1; Capan-1): 51.0%
EC50 (Capan-1; Homo sapiens, Capan-1 (K-RAS: G12V), absolute EC50, read-out: Ab EC50): 14 nM
Top Inhibition % (H358): 59.6%
EC50 (H358; Homo sapiens, NCI-H358, absolute EC50, read-out: Ab EC50): 2.2 nM
EC50 (H358; Homo sapiens, NCI-H358, relative EC50, read-out: Re EC50): 0.4 nM
Top Inhibition % (AsPC-1; AsPC-1): 32.7%
EC50 (AsPC-1; Homo sapiens, ASPC1, AsPC-1 (K-RAS: G12D), absolute EC50, read-out: Ab EC50): > 500 nM
EC50 (AsPC-1; Homo sapiens, ASPC1, AsPC-1, relative EC50, read-out: Re EC50): 1.3 nM
EC50 (LS180; Homo sapiens): > 10000 nM
Top Inhibition % (LS180): 14.7%
EC50 (MiaPaCa-2; Homo sapiens, MIA PaCa-2, MiaPaCa-2 (K-RAS: G12C), absolute EC50, read-out: Ab EC50): 0.28 nM
EC50 (MiaPaCa-2; Homo sapiens, MIA PaCa-2, MiaPaCa-2, relative EC50, read-out: Re EC50): 0.24 nM
Top Inhibition % (MiaPaCa-2; MiaPaCa-2): 81.1%
EC50 (THP1; Homo sapiens, THP-1, THP1 (N-RAS: G12D), absolute EC50, read-out: Ab EC50): < 4.6 nM
Top Inhibition % (THP1; THP1): 52.9%
Top Inhibition % (HL60; HL60): 60.0%
EC50 (HL60; Homo sapiens, HL-60, HL60 (N-RAS: Q61L), absolute EC50, read-out: Ab EC50): < 4.6 nM

CC(=O)OCC1=CC2C3C(C)(C)C3(OC(C)=O)CC(C)C2(O)C2C=C(C)C(=O)C2(O)C1 (centres unmarked) [Compound K101E]
Top Inhibition % (RPMI8226): 32.25%
Top Inhibition % (H838): 26.8%
Top Inhibition % (H1915): 35.6%
Top Inhibition % (BxPC-3): 38.87%
Top Inhibition % (Colo205): 85.8%
Top Inhibition % (SW900): 25.4%
Top Inhibition % (HT29): 31.7%
EC50 (Pan2.03; [1]): > 30000 nM
Top Inhibition % (Pan2.03; Pan2.03): 36.5%
EC50 (Pan2.03; [2]): 1920 nM
EC50 (SW620): > 30000 nM
Top Inhibition % (SW620): 0.0%
EC50 (HCT116; HCT116 (K-RAS: G13D), absolute EC50, read-out: Ab EC50): > 30000 nM
Top Inhibition % (HCT116; HCT116): 27.4%
EC50 (HCT116; HCT116, relative EC50, read-out: Re EC50): 6640 nM
EC50 (CCRF-CEM; CCRF-CEM (K-RAS: G12D), absolute EC50, read-out: Ab EC50): > 30000 nM
Top Inhibition % (CCRF-CEM; CCRF-CEM): 34.3%
EC50 (CCRF-CEM; CCRF-CEM, relative EC50, read-out: Re EC50): 270 nM
EC50 (Pan2.13; [3]): > 200 nM
Top Inhibition % (Pan2.13; Pan2.13): 49.8%
EC50 (Pan2.13; [4]): 44 nM
EC50 (KP-4; KP-4 (K-RAS: G12C), absolute EC50, read-out: Ab EC50): 1280 nM
Top Inhibition % (KP-4; KP-4): 69.1%
EC50 (KP-4; KP-4, relative EC50, read-out: Re EC50): 680 nM
EC50 (A549; A549 (K-RAS: G12S), absolute EC50, read-out: Ab EC50): 2640 nM
Top Inhibition % (A549; A549): 78.7%
EC50 (A549; A549, relative EC50, read-out: Re EC50): 1560 nM
EC50 (H441; H441 (K-RAS: G12V), absolute EC50, read-out: Ab EC50): > 30000 nM
Top Inhibition % (H441; H441): 49.1%
EC50 (H441; H441, relative EC50, read-out: Re EC50): 2610 nM
EC50 (AGS; AGS (gastric, K-RAS: G12D), absolute EC50, read-out: Ab EC50): > 30000 nM
Top Inhibition % (AGS; AGS): 25.9%
EC50 (AGS; AGS, relative EC50, read-out: Re EC50): 4380 nM
EC50 (H727; H727 (K-RAS: G12V), absolute EC50, read-out: Ab EC50): > 30000 nM
Top Inhibition % (H727; H727): 49.1%
EC50 (H727; H727, relative EC50, read-out: Re EC50): 620 nM
EC50 (Capan-1; Capan-1 (K-RAS: G12V), absolute EC50, read-out: Ab EC50): > 30000 nM
Top Inhibition % (Capan-1; Capan-1): 44.6%
EC50 (Capan-1; Capan-1, relative EC50, read-out: Re EC50): 830 nM
Top Inhibition % (H358): 47.9%
EC50 (H358; absolute EC50, read-out: Ab EC50): > 30000 nM
EC50 (H358; relative EC50, read-out: Re EC50): 1250 nM
EC50 (AsPC-1; AsPC-1 (K-RAS: G12D), absolute EC50, read-out: Ab EC50): > 30000 nM
Top Inhibition % (AsPC-1; AsPC-1): 35.2%
EC50 (AsPC-1; AsPC-1, relative EC50, read-out: Re EC50): 2780 nM
EC50 (LS180): > 30000 nM
Top Inhibition % (LS180): 1.3%
EC50 (MiaPaCa-2; MiaPaCa-2 (K-RAS: G12C), absolute EC50, read-out: Ab EC50): 1880 nM
Top Inhibition % (MiaPaCa-2; MiaPaCa-2): 61.4%
EC50 (MiaPaCa-2; MiaPaCa-2, relative EC50, read-out: Re EC50): 860 nM
EC50 (THP1; THP1 (N-RAS: G12D), absolute EC50, read-out: Ab EC50): 3600 nM
Top Inhibition % (THP1; THP1): 51.6%
EC50 (THP1; THP1, relative EC50, read-out: Re EC50): 1020 nM
EC50 (HL60; HL60 (N-RAS: Q61L), absolute EC50, read-out: Ab EC50): 3050 nM
Top Inhibition % (HL60; HL60): 63.4%
EC50 (HL60; HL60, relative EC50, read-out: Re EC50): 1920 nM
